US20100184031A1, “NOVEL ADIPOCYTOKINE VISFATIN/PBEF1 IS AN APOPTOSIS ASSOCIATED FACTOR INDUCED IN MONOCYTES DURING IN VIVO HIV-1 INFECTION” (priority 2007, published 2010)

Assays:
[1] = tested on: M-tropic R5 HIV lab-strain BaL; assay: In vitro infection of PBMC cultures with HIV BaL, p24 ELISA / TCID50; assay type: cell-based
[2] = tested on: M-tropic R5 HIV lab-strain BaL; assay: In vitro infection of monocyte-derived macrophages (MDM) with HIV BaL, p24 ELISA / TCID50; assay type: cell-based; conditions: MDM cultures
Text: (§1) For in vitro infection experiments, monocytes were obtained from buffy coats of healthy donors of the Blood Transfusion Center of Antwerp (Rode Kruis Vlaanderen, Belgium) by counterflow elutriation, as described previously (Van Herrewege et al., 2002). These cells were then differentiated to monocyte-derived macrophages (MDM) during seven days in RPMI 1640 medium (Bio-Whittaker, Verviers, Belgium) supplemented with 10% bovine fetal calf serum (Biochrom, Berlin, Germany), penicillin (100 U/ml) and streptomycin (100 μg/ml) (Roche Diagnostics, Mannheim, Germany) and 40 ng/ml M-CSF (PeproTech, London, United Kingdom) at 37° C. and 5.0% CO2. Half the medium was replaced after four days. Cells were then harvested and used for experiments in the same medium (without M-CSF).
(§2) For infection experiments, MDM were plated in 96-well plates at 7.5×10^5 cells/ml and pre-treated with recombinant visfatin (200 ng/ml) for 1 hour at 37° C. and 5.0% CO2. Then, virus was added in six-fold and incubated for 2 hours, again at 37° C. and 5.0% CO2. Cells were then washed 3× to remove unbound virus and incubated for 14 days. Productive infection was monitored via an in-house-developed p24 antigen ELISA, as described elsewhere (Beirnaert et al., 1998).
This viral infectivity can be quantified by calculating the TCID50 (Tissue Culture Infectious Dose 50%, i.e., the dose of virus that has a 50% chance of infecting a cell culture) values of the viral stocks. Addition of visfatin reduces the TCID50 values of BaL by approximately one log in both PBMC and MDM cultures, signifying a 90% reduction in viral infectivity (FIG. 7, Panel A).

[3] = tested on: X4 strain of the 968 clone (968-1); assay: In vitro infection of MDM with clinical isolate 968-1 (X4), viral titer (TCID50); assay type: cell-based, HIV
Text: as §1, §2
R5 and X4 strains of the 968 viral clone were isolated from one patient, and differ only in co-receptor usage.

[4] = tested on: T-tropic X4 HIV lab-strain IIIB (=HxB2); assay: In vitro infection with X4 HIV lab-strain IIIB, viral infectivity (TCID50); assay type: cell-based; conditions: same experiment as for BaL
Description: as §2
This signifies that by selectively inhibiting R5 and not X4 HIV, visfatin contributes to the HIV co-receptor switch seen in ca. 50% of all patients in which the co-receptor usage of the dominant quasispecies within the patient switches from the moderately virulent R5 to the more aggressive X4, leading to increased progression to AIDS.

[5] = 200 ng/ml PBEF1, 14 days of culture
[6] = PBMC cultures, 200 ng/ml PBEF1, 14 days of culture

NC(=O)c1ccc[n+]([C@@H]2O[C@H](COP(=O)([O-])O)[C@@H](O)[C@H]2O)c1 [NMN, nicotinamide mononucleotide, reference compound]
infectivity of HIVBaL (TCID50) ([1]; PBMC cultures, 100 μM nicotinamide mononucleotide, 14 days of culture): reduces the infectivity

visfatin: Recombinant visfatin (PBEF1, nicotinamide phosphoribosyltransferase) protein obtained from PeproTech
reduction in viral infectivity [2, 5]: 90%
reduction of TCID50 value of BaL [2, 5]: approximately one
viral infectivity (productive infection, p24 secretion) ([2]; recombinant visfatin (200 ng/ml) added prior to infection with BaL): decreases the viral infectivity
viral titer of X4 clinical isolate in MDM [3, 5]: increased the viral titer
productive infection of MDM by X4 clinical isolate 968-1 ([3]; strain incapable of infecting untreated MDM): allowed the 968-1 clone to establish a productive infection
effect on viral infectivity of X4 strain IIIB [4]: does not mediate this effect
reduction in viral infectivity [1, 6]: 90%
reduction of TCID50 value of BaL [1, 6]: approximately one
viral infectivity (productive infection, p24 secretion) ([1]; activated PBMC cultures, recombinant visfatin added prior to infection with BaL): decreases the viral infectivity
